The record followed here is patent US20160008490A1, “METAL CHELATE COMPOUNDS FOR BINDING TO THE PLATELET SPECIFIC GLYCOPROTEIN IIB/IIIA” (BAYER PHARMA AKTIENGESELLSCHAFT, priority 2013, published 2016).

Series [1] addresses T1, human GP IIb/IIIa receptor (Homo sapiens, UniProt P05106+P08514).
T1 construct: human GPIIb/IIIa purified from human platelets was immobilized on a 96-well solid plate; purchased Enzyme Research Laboratories Inc. (South Bend, Ind.); host or cells: human platelets (natural source, detergent-solubilised)
The experiment in a line: GPIIb/IIIa affinity assay (displacement of tritiated reference compound from immobilized receptor). It is filed as binding. Conditions: purified human GPIIb/IIIa, 60 nM 3H-labeled reference compound, 1 hour at room temperature. How it is done: Affinity assay: In the first step human GPIIb/IIIa purified from human platelets was immobilized on a 96-well solid plate. After 48 hours the plates were washed and the unspecific binding sites were blocked with Roti®-Block. 2. In the next step, the plates were simultaneously incubated with a tritium labeled known GPIIb/IIIa binder (^3H) mixed with increasing concentrations of the novel compounds (inhibitor). The higher the affinity of the inhibitor, the lower the bound fraction of the tritiated known GPIIb/IIIa binder (^3H) was. The fraction of tritiated compound (^3H), which is not displaced by inhibitor, was measured in a microplate scintillation counter.
Purified human glycoprotein IIb/IIIa (20 mM Tris-HCl, 0.1 M NaCl, 0.1% Triton X-100, 1 mM CaCl2, 0.05% NaN3, 50% Glycerol, pH 7.4) was purchased from Enzyme Research Laboratories Inc. (South Bend, Ind.). The GPIIb/IIIa receptor was diluted in phosphate-buffered saline (Dulbecco's Phosphate Buffered Saline (D-PBS (+)) with calcium and magnesium, GIBCO®, Invitrogen) with 0.01% bovine serum albumin (albumin from bovine serum—lyophilized powder, 96%, Sigma).
The GPIIb/IIIa receptor was immobilized 48 hours at least (100 μL per well, 48 to maximum 96 hours) on a 96-well solid plate (Immuno Plate MaxiSorp™, Nunc, Roskilde, Denmark) at 277 K to 280 K and at a concentration of 0.1 μg per well to 1 μg per well. As negative control one row of the plate (n=8) was incubated just with 2% bovine serum albumin (200 μL per well, albumin from bovine serum—lyophilized powder, ≧96%, Sigma, diluted in D-PBS (+)).
After washing three times with the wash buffer (230 μL per well, Dulbecco's Phosphate Buffered Saline (D-PBS (−)) contains no calcium or magnesium, GIBCO®, Invitrogen) residual exposed plastic and unspecific binding sites were blocked by incubating the plate with a special blocking solution (200 μL per well, Roti®-Block, Car Roth GmbH Co KG, Karlsruhe) containing 2% bovine serum albumin (Albumin from bovine serum—lyophilized powder, ≧96%, Sigma) 1 hour at room temperature.
After washing three times with the wash buffer 50 μL of tritiated reference compound (60 nM, ^3H-labeled compound) and 50 μL of novel compound (inhibitor) were simultaneously added to each well and incubated for 1 hour at room temperature. Several concentrations of each novel inhibitor (0.1, 1, 2, 5, 10, 20 50, 100, 200, 500, 1000, 2000, 5000, 10000 and 20000 nM) were investigated. At each concentration of inhibitor a fourfold determination was performed.
The maximum value of tritiated reference compound was determined without addition of inhibitor (n=8). To exclude unspecific binding of ^3H— reference compound wells without glycoprotein receptors were used as negative controls (n=12, identically treated just without GPIIb/IIIa receptors).
After one hour the plate was washed three times with phosphate-buffered saline (200 μL per well, Dulbecco's Phosphate Buffered Saline (D-PBS (+)), GIBCO®, Invitrogen). Following 140 μL of liquid scintillation cocktail (MicroScint™ 40 aqueous, Perkin Elmer) was added to each well. After 15 min at room temperature the plates were measured at the microplate scintillation counter (TopCount NXT v2.13, Perkin Elmer, Packard Instrument Company).
In the first step human glycoprotein IIb/IIIa, which is purified from human platelets, was immobilized on a 96-well solid plate. After 48 hours at least the plates were washed and the unspecific binding sites were blocked with Roti®-Block. In the next step, the plates were simultaneously incubated with a tritium labeled reference compound and the novel small molecule compound (inhibitor). The higher the affinity of the inhibitor, the smaller is the bound fraction of reference compound. The fraction of tritiated reference compound, which is not displaced by inhibitor, was measured at a microplate scintillation counter. The higher the affinity of the inhibitor, the smaller is the bound fraction of tritium-labeled reference compound. […]

Series [2] is described as follows: Relaxivity measurements at 1.41 T in water and plasma. It is filed as physicochemical. Conditions: relaxivity normalized to Gd, 37° C. The protocol:
Relaxivity measurements at 1.41 T were performed using a MiniSpec mq60 spectrometer (Bruker Analytik, Karlsruhe) operating at a resonance frequency of 60 MHz and a temperature of 37° C. The T1 relaxation times were determined using the standard inversion recovery method. The T2 measurements were done by using the Carr-Purcell-Meiboom-Gill (CPMG) pulse sequence. All measurements were done at concentrations between 0.05 mM and 1 mM of Gd in water and plasma.
The relaxivities ri (where i=1, 2) were calculated on the basis of the measured relaxation rates Ri in water and plasma:
where Ri(0) represent the relaxation rate of the respective solvent and CGd the concentration of the compound normalized to the Gadolium.

Molecules are shown by their SMILES. pIC50: −log10 of the molar value.

T1 sequence (P08514 32-887 limits assumed): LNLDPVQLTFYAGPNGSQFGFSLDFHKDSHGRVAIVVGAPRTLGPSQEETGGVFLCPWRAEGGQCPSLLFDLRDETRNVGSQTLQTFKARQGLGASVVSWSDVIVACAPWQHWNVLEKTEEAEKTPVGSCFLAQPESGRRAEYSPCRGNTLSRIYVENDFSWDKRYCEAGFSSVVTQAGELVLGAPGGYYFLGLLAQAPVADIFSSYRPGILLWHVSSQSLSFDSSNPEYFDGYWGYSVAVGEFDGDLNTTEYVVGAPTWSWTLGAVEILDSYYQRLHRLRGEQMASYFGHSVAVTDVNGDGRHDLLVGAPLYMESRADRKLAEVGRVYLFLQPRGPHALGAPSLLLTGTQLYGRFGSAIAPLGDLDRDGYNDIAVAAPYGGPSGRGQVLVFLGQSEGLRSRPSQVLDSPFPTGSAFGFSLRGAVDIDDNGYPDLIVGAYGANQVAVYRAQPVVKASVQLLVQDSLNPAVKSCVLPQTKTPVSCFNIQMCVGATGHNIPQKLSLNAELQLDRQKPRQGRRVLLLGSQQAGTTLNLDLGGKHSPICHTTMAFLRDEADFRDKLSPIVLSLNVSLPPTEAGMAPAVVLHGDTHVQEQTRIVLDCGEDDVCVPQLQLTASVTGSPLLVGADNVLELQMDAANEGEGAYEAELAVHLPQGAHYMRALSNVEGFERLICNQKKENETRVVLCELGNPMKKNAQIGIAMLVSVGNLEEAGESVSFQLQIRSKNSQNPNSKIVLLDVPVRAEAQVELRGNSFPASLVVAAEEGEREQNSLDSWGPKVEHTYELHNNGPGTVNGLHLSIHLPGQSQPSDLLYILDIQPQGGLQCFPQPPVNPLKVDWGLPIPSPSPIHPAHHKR
T1 sequence (P08514 891-1039 partner limits assumed): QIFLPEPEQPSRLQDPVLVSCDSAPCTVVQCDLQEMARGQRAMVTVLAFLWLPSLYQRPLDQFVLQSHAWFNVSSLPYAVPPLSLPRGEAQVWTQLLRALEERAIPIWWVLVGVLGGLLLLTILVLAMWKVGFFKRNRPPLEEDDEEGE
T1 sequence (P05106 27-788): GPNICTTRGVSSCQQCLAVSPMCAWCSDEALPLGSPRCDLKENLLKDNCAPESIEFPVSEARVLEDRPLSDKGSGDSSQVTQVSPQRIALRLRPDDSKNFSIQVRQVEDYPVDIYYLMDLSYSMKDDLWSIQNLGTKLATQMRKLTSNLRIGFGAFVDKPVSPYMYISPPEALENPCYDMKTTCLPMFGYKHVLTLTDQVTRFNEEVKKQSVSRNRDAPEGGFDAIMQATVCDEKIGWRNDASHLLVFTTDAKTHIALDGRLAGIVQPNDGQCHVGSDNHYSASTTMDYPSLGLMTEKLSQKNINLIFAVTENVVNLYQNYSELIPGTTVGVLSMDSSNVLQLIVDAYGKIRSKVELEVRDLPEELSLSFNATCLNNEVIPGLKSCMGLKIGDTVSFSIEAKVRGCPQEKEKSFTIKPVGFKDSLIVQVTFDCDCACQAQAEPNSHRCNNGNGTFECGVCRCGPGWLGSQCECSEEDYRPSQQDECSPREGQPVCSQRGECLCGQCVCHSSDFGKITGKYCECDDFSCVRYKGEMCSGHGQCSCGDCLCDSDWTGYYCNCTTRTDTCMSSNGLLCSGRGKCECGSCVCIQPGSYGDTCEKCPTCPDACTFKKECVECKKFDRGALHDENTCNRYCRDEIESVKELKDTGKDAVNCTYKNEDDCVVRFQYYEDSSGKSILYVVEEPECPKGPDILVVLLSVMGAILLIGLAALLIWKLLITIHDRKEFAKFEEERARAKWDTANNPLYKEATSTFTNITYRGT

In series [1], `CC(C(=O)NCC(=O)NC[C@H](NC(=O)CNC(=O)C(C)N1CCN(CC(=O)O)CCN(CC(=O)O)CCN(CC(=O)O)CC1)C(=O)NC[C@H](NC(=O)[C@H](CNC(=O)CNC(=O)C(C)N1CCN(CC(=O)O)CCN(CC(=O)O)CCN(CC(=O)O)CC1)NC(=O)CNC(=O)C(C)N1CCN(CC(=O)O)CCN(CC(=O)O)CCN(CC(=O)O)CC1)C(=O)NCCCCc1cccc(C#Cc2cncc([C@H](CC(=O)O)NC(=O)[C@@H]3CCCN(C(=O)CCC4CCNCC4)C3)c2)c1)N1CCN(CC(=O)O)CCN(CC(=O)O)CCN(CC(=O)O)CC1` (stereo partly drawn) [Example 8] showed a pIC50 of 7.68. This compound gave a r1 plasma in series [2] (plasma) of 14.5 L/mmol/s. In series [2] (water), the r1 water turned out to be 12.6 L/mmol/s.
